For 2 compounds, IC50 results are on record in patent US20090286813A1, “Thioxanthine Derivatives and Their Use as Inhibitors of MPO” (ASTRAZENECA AB, priority 2006, published 2009).

For the experiment, the target named is T1, human MPO (Homo sapiens, UniProt P05164).
T1 sequence (P05164 49-745): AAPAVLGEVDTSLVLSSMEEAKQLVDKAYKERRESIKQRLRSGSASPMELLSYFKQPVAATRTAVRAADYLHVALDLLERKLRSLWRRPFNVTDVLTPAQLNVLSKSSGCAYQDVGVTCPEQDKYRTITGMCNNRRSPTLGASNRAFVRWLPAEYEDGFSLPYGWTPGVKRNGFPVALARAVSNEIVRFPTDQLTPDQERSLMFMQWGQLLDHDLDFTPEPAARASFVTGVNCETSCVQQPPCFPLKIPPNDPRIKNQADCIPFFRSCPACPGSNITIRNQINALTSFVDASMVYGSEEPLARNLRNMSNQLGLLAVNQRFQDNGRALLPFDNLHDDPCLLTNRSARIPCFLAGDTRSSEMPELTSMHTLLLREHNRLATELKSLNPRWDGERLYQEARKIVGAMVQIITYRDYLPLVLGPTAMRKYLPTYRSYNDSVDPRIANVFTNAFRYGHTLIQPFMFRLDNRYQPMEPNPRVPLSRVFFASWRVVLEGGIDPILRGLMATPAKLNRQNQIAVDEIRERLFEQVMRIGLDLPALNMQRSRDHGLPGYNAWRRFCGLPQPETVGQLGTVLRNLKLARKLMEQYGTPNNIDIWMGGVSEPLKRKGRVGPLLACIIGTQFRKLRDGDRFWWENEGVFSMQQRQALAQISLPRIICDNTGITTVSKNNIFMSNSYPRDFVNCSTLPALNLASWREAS
Description: MPO inhibition screen (TMB oxidation, absorbance). The experiment is classed as biochemical. To be noted: in the presence of tyrosine (final concentration 8 μM); human MPO 2.5 nM. The procedure:
Methods for the determination of MPO inhibitory activity are disclosed in patent application WO 02/090575. The pharmacological activity of compounds according to the invention was tested in the following screen in which the compounds were either tested alone or in the presence of added tyrosine:
Assay buffer: 20 mM sodium/potassium phosphate buffer pH 6.5 containing 10 mM taurine and 100 mM NaCl.
Developing reagent: 2 mM 3,3′,5,5′-tetramethylbenzidine (TMB), 200 μM KI, 200 mM acetate buffer pH 5.4 with 20% DMF.
To 10 μl of diluted compounds in assay buffer, 40 μl of human MPO (final concentration 2.5 nM), with or without 20 μM tyrosine (final concentration, if present, 8 μM), was added and the mixture was incubated for 10 minutes at ambient temperature. Then 50 μl of H2O2 (final concentration 100 μM), or assay buffer alone as a control, were added. After incubation for 10 minutes at ambient temperature, the reaction was stopped by adding 10 μl 0.2 mg/ml of catalase (final concentration 18 μg/ml). The reaction mixture was left for an additional 5 minutes before 100 μl of TMB developing reagent was added. The amount of oxidised 3,3′,5,5′-tetramethylbenzidine formed was then measured after about 5 minutes using absorbance spectroscopy at about […]. IC50 values were then determined using standard procedures.

A word on the IC50: it is the concentration needed to halve the response being measured. On to `O=c1[nH]c(=S)n(-c2cccc(OC(F)(F)F)c2)c2nc[nH]c12` [Example 3, 2-thioxo-3-[3-(trifluoromethoxy)phenyl]-1,2,3,7-tetrahydro-6H-purin-6-one], for which the IC50 worked out at 2.75 µM. As for `O=c1[nH]c(=S)n(-c2cnc3ccccc3c2)c2nc[nH]c12` [Example 8, 3-quinolin-3-yl-2-thioxo-1,2,3,7-tetrahydro-6H-purin-6-one], the IC50 amounted to 4.47 µM.
